“Also recorded” adds a separate entry of the source.
Experiments:
PGC-1α and related genes [1] = assay: Gene expression in brain and hippocampus of Huntington's disease models; assay type: in vivo, mouse; details: R6/2 mice, oral 0.1 mg/kg/day, 10 weeks
Description: In order to investigate the changes in gene expression and cognitive ability by the treatment with SL (3′-SL & 6′-SL) compositions in Huntington's brain disease model, 4-week-old mice were purchased from Central Lab Animal (Korea). Water was freely accessible, and a commercially available pellet feed (Dooyeul Biotech, Korea) was given for one week. At 5 weeks of age, the mice were divided into three groups (composed of eight mice for each group): Eight 5-week-old male c57/BL6 mice (normal mice; initial body weight, average 25.3±4.3 g) treated with a normal diet were used for a control group. […]
(§1) Sialyllactose or DW was orally administered daily. […] The dietary intake and body weight change were measured every 5 days. […]
The gene expression changes by the treatment with SL (3′-SL & 6′-SL) compositions were quantitatively compared in two main organs (brain and hippocampus) associated with bran diseases. RNA was extracted by TRIzol agent (Invitrogen). cDNA was synthesized by using RNA, which has been extracted as above and quantified, and a reverse transcription system (Promega, USA). The expression patterns of PGC-1α and related genes were measured by using pre-designed primers and probes (Applied Biosystems; PGC-1α, Mm00447181_m1, GAPDH, and Mm99999915_q1) for the synthesized cDNA and analysis targets (Fndc5, PGC-1α, Erra, UCP1, BDNF, SOD2, and GPX1). […]

PGC-1α and related genes [2] = assay: Gene expression by body parts in aging stimulation models; assay type: in vivo, mouse; details: SAM P1/Sku Slc mice, oral 0.1 mg/kg/day, 12 weeks, organs and skeletal muscles
Experimental: In order to investigate the gene expression changes by body parts by the treatment with SL (3′-SL & 6′-SL) compositions in aging stimulation models, 4-week-old male aging stimulation model mice (SAM P1/Sku Slc) were purchased from Central Lab Animal (Korea). Water was freely accessible, and a commercially available pellet feed (Dooyeul Biotech, Korea) was given for one week. […]
as §1
The gene expression changes by administration of the SL (3′-SL & 6′-SL) compositions were quantitatively compared for eight main organs (heart, hippocampus, brain, spinal cord, lung, liver, spleen, and kidney), three skeletal muscles (soleus muscle, quadriceps femoris muscle, and gastrocnemius muscle), and the like. RNA was extracted by TRIzol agent (Invitrogen). cDNA was synthesized by using RNA, which has been extracted as above and quantified, and a reverse transcription system (Promega, USA). The expression patterns of PGC-1α and related genes were measured by using pre-designed primers and probes (Applied Biosystems; PGC-1α, Mm00447181_m1, GAPDH, and Mm99999915_q1) for the synthesized cDNA and analysis targets (Fndc5, PGC-1α, Erra, UCP1, SOD2, and GPX1). […]

Structure (SMILES)	expression levels of PGC-1α and related genes vs SL non-administration (Huntington's disease model) group (PGC-1α and related genes [1])	expression levels of PGC-1α and related genes vs normal control group (PGC-1α and related genes [1])	expression levels of analysis targets (Fndc5, PGC-1α, Erra, UCP1, SOD2, GPX1) vs control group (PGC-1α and related genes [2])	expression levels of analysis targets (Fndc5, PGC-1α, Erra, UCP1, SOD2, GPX1) vs control group (PGC-1α and related genes [2]; 0.1 mg/kg/day)
CC(=O)N[C@H]1[C@H]([C@H](O)[C@H](O)CO)O[C@@](OC[C@H]2O[C@@H](O[C@H]3[C@H](O)[C@@H](O)[C@H](O)O[C@@H]3CO)[C@H](O)[C@@H](O)[C@H]2O)(C(=O)O)C[C@@H]1O [6′-SL, α-NeuNAc-(2→6)-β-D-Gal-(1→4)-D-Glc]	very excellent	somewhat lower	significant increases	
CC(=O)N[C@H]1[C@H]([C@H](O)[C@H](O)CO)O[C@@](O[C@H]2[C@@H](O)[C@@H](CO)O[C@@H](O[C@H]3[C@H](O)[C@@H](O)C(O)O[C@@H]3CO)[C@@H]2O)(C(=O)O)C[C@@H]1O (stereo partly drawn) [3′-SL, α-NeuNAc-(2→3)-β-D-Gal-(1→4)-D-Glc]	relatively low compared with 6′-SL			significant increases; also recorded: relatively low compared with 6′-SL

Reference: patent US20190030053A1, “COMPOSITION FOR INCREASING EXPRESSION OF PGC-1alpha” (BENEBIOSIS CO., LTD., priority 2016, published 2019)
